Experimental findings from patent EP0863156A1, “Peptides useful as somatostatin antagonists” (American Cyanamid Company, priority 1997, dated 1998) are described below.

Experiment [1] has as its target T1, SRIF receptors (Rattus norvegicus, UniProt P30680).
T1 construct: expressed in transfected cells; host or cells: Saccharomyces cerevisiae strain LY364
The experiment can be described thus: Yeast bioassay for SRIF antagonist activity (zone of growth inhibition of LY364 cells growing in response to SRIF). It is filed as cell-based. To be noted: 10 µL of 5 mg/mL on filter disk, S-14 10 nM; for Inhibition Zone (mm): sample type 4th iteration, read after 3 days, compare only within same experiment; for Yeast Assay (mm): Table III, diameter of zone of growth inhibition. Here is the method:
Agar plates containing LY364 cells that are growing in the presence of added SRIF are the basis for a sensitive SRIF antagonist assay, whereby zones of growth inhibition result from the addition of SRIF antagonists to the surface of the agar plate (see L.A. Price, et al., Molecular and Cellular Biology, 15, 6188-6195, 1995, incorporated herein by reference).
In this assay, LY364 cells are grown overnight in 2 mL of synthetic complete(SC) medium (3.4 g/L YNB without amino acids and ammonium sulfate, 10 g/L ammonium sulfate and 1.4 g/L CSM-ura-trp) with glucose (2%) and without uracil and tryptophan. These cells are washed and cultured for 4 to 8 hours in 5 mL of SC medium with lactate (3%) and without uracil and tryptophan, and finally grown overnight in 5 mL of SC medium with galactose (2%) and without uracil and tryptophan. Molten (50° C) SC agar medium with galactose (2%) and without uracil, tryptophan and histidine is adjusted to pH 6.8 with KOH, mixed with 2 x 10^4 cells/mL and SRIF (S-14, 10 nM) and poured into square (20 x 20 cm) petri dishes. Sterile filter disks are placed on the surface of the agar, and saturated with 10 µL of water or DMSO containing 5 mg/mL test peptides. After three days, the plates display a uniform cloudy background of […] cells growing in response to the added SRIF. […] This zone is quantified by measuring its diameter (mm), which varies according to the potency of the SRIF antagonist. Those peptides or mixtures of peptides displaying the largest zones of inhibition are further characterized.
Values are compared among samples in the same experiment, as the degree of yeast growth varies somewhat from assay to assay. For the first five sample types, in which progressively less complex mixtures of peptides are found, this assay is the primary determining factor in choosing which samples form the basis of subsequent syntheses.
Plates are read after 3 days. Samples shown in Table I in bold type are chosen for further synthesis. In Table I, all amino acids are D-amino acids and dashes represent undefined amino acid residues.

Experiment [2] addresses SSTR2 (Rattus norvegicus, UniProt P30680). The experiment can be described thus: cAMP accumulation in forskolin-stimulated GH4C1/SSTR2 cells (SPA radioimmunoassay). The following applies: for Emax: GH4-C1, read-out: cAMP Assay Intrinsic activity; for Emax / cAMP Assay Intrinsic activity: percent reversal of SSTR2 activation by SRIF or MK678, 0% = forskolin plus agonist, 100% = forskolin alone. More on the design: expressed in transfected cells; host or cells: GH4C1 rat pituitary tumor cells. The experiment is classed as cell-based. In general terms: Changes in cAMP serve as a functional read-out for many G protein-coupled receptors.
Experimental: This is the basis of a common assay for SRIF agonists and antagonists, whereby SRIF agonists reduce artificially stimulated cAMP levels, and SRIF antagonists reverse the effect of SRIF. […] This increases the response to SRIF and provides a greater dynamic range for the measurement of SRIF antagonist activity.
Stimulation of cells. GH4C1/SSTR2 cells, grown in DMEM with 10% bovine serum, are released from a tissue culture dish by incubation for several minutes at 37° C with PBS containing 0.5 mM EDTA. Cells are washed in induction buffer (PBS containing 100 µM IBMX (an inhibitor of cAMP breakdown) and 2 mM CaCl2) at room temperature, and resuspended at 2 x 10^6/mL in induction buffer. Into each well of a 96-well tray are added 50 µL of a 2 X concentration of stimulants in induction buffer. […] To initiate stimulation of the cells, 50 µL (100,000) cells are added to each well, mixed by shaking 10 seconds on a plate shaker and placed at 37° C for 15 minutes. Stimulation is arrested and cells are lysed by adding 15 µL 0.33 N HCI to each well and incubating the plate for 30 minutes at 37° C. Samples are neutralized by addition of 15 µL 0.25 N NaOH/50 mM Hepes pH 7.4. Baseline cAMP levels are determined in samples with no added forskolin or SRIF, and each treatment is performed in triplicate.
cAMP assay. To measure accumulated cAMP in the samples, a radioimmunoassay is employed. The scintillation proximity assay (SPA, Amersham, Arlington Heights, IL) allows the rapid measurement of ^125I cAMP bound to a specific antibody without separating bound radioligand from free radioligand. Each of the following reagents (15 µL) are added per well in a 96-well tray: supernatants from the cell stimulation; ^125I cAMP; SPA beads conjugated to monkey anti-rabbit IgG antibodies; and rabbit anti-cAMP antibodies. For the standard curve, known amounts of cAMP (0.2 - 12.8 pmol) are added in place of cell supernatants. The 96-well tray is sealed, shaken at room temperature overnight and measured for bound radioligand in a MicroBeta liquid scintillation counter (Wallac, Gaithersburg. MD).
The intrinsic activity of an SRIF antagonist is the percent reversal of the SSTR2 activation by SRIF or MK678, wherein 0% is defined by cAMP levels in samples treated with forskolin plus SRIF or MK678 and 100% is the cAMP level measured after treatment with forskolin alone. Therefore, increased intrinsic activity of a test compound indicates increased antagonist activity of said test compound.
An inverse agonist is a compound that is not only a pure antagonist (i.e. lacking agonist activity), but also blocks the constitutive activity of an unoccupied receptor. One indication of inverse agonist activity is the ability of a SRIF antagonist to increase cAMP levels in the absence of added SRIF.

The subject of experiment [3] is serum growth hormone (GH) levels. The experiment can be described thus: In vivo serum growth hormone levels in anaesthetized rats (radioimmunoassay). Further details: species or system Male Sprague-Dawley rats. To be noted: GRF 1 µg alone at 30 min. On the procedure: Evaluation in anaesthetized rats. Male Sprague-Dawley rats are anaesthetized with Sagatal and fitted so as to allow efficient intravenous treatment with control and test compounds as well as frequent blood sampling. Blood samples are tested for growth hormone (GH) levels by radioimmunoassay. Thirty minutes after the initiation of blood sampling, rats are given 5 µg, 25 µg or 50 µg of peptide 1.
Peptide 1 is tested in combination with growth hormone releasing factor (GRF), to investigate whether said peptide may be mimicking the action of GRF. Anaesthetized rats are given GRF (1 µg) alone and in combination with peptide 1 (50 µg). […]

Where [4] appears, read: dose response of SRIF agonist upon cAMP levels in forskolin stimulated GH4C1/SSTR2 cells, agonist alone.

A word on the EC50: it is the concentration at which the effect is half-maximal. A low value points to a more potent agent.

Read-outs that look alike come from different tables or passages of the source. Square brackets hold non-standard residues; d marks the D form. Peptide text beside a SMILES is read from it.

Sequence of SSTR2 (P30680 whole entry): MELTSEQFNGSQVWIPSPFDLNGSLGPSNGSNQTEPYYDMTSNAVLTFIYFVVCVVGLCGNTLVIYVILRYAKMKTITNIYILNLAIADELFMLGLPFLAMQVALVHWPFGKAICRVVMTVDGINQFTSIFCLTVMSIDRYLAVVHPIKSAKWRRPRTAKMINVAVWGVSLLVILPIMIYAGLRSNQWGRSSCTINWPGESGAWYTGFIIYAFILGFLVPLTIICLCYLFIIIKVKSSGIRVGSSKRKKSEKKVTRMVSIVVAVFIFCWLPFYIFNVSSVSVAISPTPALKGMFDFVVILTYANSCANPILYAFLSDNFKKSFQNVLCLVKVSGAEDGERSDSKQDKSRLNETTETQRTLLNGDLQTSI
T1 sequence (P30680 whole entry): as above

As to `CC[C@@H](C)[C@@H](NC(=O)[C@@H](Cc1ccccc1)NC(=O)[C@@H](Cc1c[nH]cn1)NC(C)=O)C(=O)N[C@H](CCCNC(=N)N)C(=O)N[C@H](Cc1c[nH]c2ccccc12)C(=O)NCC(N)=O` [His Phe Ile Arg Trp Gly] (Ac-[dH][dF][dI][dR][dW]G-NH2), the “Inhibition Zone (mm)” value in experiment [1] is 13 mm.

Take `CC(C)[C@@H]1NC(=O)[C@H](CCCCN)NC(=O)[C@@H](Cc2c[nH]c3ccccc23)NC(=O)[C@H](Cc2ccc(O)cc2)NC(=O)[C@H](C)N(C)C(=O)[C@H](Cc2ccccc2)NC1=O` [MK678, reference compound]: the cAMP in experiment [2] (Forskolin 1.25 µM + MK 678 10 nM, no Peptide 1 (forskolin alone 3.04; baseline 0.36)) worked out at 0.91 pM per 4 x 10^4 cells. In experiment [2] (setting [4]), a half-maximal response (EC50) required 0.143 nM, the Maximum was 6.431 and the Minimum came out at 2.673.

Take `CC[C@@H](C)[C@@H](NC(=O)[C@@H](Cc1ccccc1)NC(=O)[C@@H](Cc1c[nH]cn1)NC(C)=O)C(=O)N[C@H](CCCNC(=N)N)C(=O)NCC(=O)N[C@H](Cc1ccccc1)C(N)=O` [Peptide 26, h-f-i-r-g-f] (Ac-[dH][dF][dI][dR]G[dF]-NH2): in experiment [2] (test peptide 2 µM), the Emax was found to be 4.51%. For `CC[C@@H](C)[C@@H](NC(=O)[C@@H](Cc1c[nH]c2ccccc12)NC(=O)[C@@H](Cc1c[nH]cn1)NC(C)=O)C(=O)N[C@H](CCCNC(=N)N)C(=O)N[C@H](Cc1ccccc1)C(=O)N[C@H](Cc1ccccc1)C(N)=O` [Peptide 29, h-w-i-r-f-f] (Ac-[dH][dW][dI][dR][dF][dF]-NH2; N-terminus and C-terminus assumed), in experiment [2] (test peptide 100 µM), the Emax came to 21.3%. Same read-out and setting: under `CC[C@@H](C)[C@@H](NC(=O)[C@@H](CCCNC(=N)N)NC(=O)[C@@H](Cc1c[nH]c2ccccc12)NC(=O)[C@@H](Cc1ccccc1)NC(=O)[C@@H](Cc1c[nH]cn1)NC(C)=O)C(=O)N[C@H](Cc1ccccc1)C(N)=O` [Peptide 30, h-f-w-r-i-f] (Ac-[dH][dF][dW][dR][dI][dF]-NH2; N-terminus and C-terminus assumed) stands 12.9%. The same measure, in the same setting: to `CC[C@@H](C)[C@@H](NC(=O)[C@@H](CCCNC(=N)N)NC(=O)[C@@H](Cc1ccccc1)NC(=O)[C@@H](Cc1c[nH]cn1)NC(C)=O)C(=O)N[C@H](Cc1c[nH]c2ccccc12)C(=O)N[C@H](Cc1ccccc1)C(N)=O` [Peptide 31, h-f-r-i-w-f] (Ac-[dH][dF][dR][dI][dW][dF]-NH2; N-terminus and C-terminus assumed) belongs 13%; to `CC[C@@H](C)[C@@H](NC(C)=O)C(=O)N[C@H](CCCNC(=N)N)C(=O)N[C@H](Cc1c[nH]c2ccccc12)C(=O)N[C@H](Cc1ccccc1)C(=O)N[C@H](Cc1c[nH]cn1)C(=O)N[C@H](Cc1ccccc1)C(N)=O` [Peptide 33, i-r-w-f-h-f] (Ac-[dI][dR][dW][dF][dH][dF]-NH2; N-terminus and C-terminus assumed), 11.5%. On the same count and under the same terms, under `CC[C@@H](C)[C@H]1NC(=O)[C@@H](Cc2ccccc2)NC(=O)[C@@H](Cc2c[nH]cn2)NC(=O)[C@@H](Cc2ccccc2)NC(=O)[C@@H](Cc2c[nH]c3ccccc23)NC(=O)[C@@H](CCCNC(=N)N)NC1=O` [Peptide 35, h-f-i-r-w-f] (cyclo([dH][dF][dI][dR][dW][dF])) stands 122%. Regarding `CC[C@@H](C)[C@@H](NC(=O)[C@@H](Cc1ccccc1)NC(=O)[C@@H](Cc1c[nH]cn1)NC(C)=O)C(=O)N[C@H](CCCNC(=N)N)C(=O)N[C@H](Cc1c[nH]c2ccccc12)C(=O)N[C@H](CC(C)C)C(N)=O` [Seq Id No. 18] (Ac-[dH][dF][dI][dR][dW][dL]-NH2), in experiment [1], the “Inhibition Zone (mm)” value came out at 15 mm.

As for `CC[C@@H](C)[C@@H](NC(=O)[C@@H](Cc1ccccc1)NC(=O)[C@@H](Cc1c[nH]cn1)NC(C)=O)C(=O)N[C@H](CCCNC(=N)N)C(=O)N[C@H](Cc1c[nH]c2ccccc12)C(=O)N[C@@H](C(N)=O)[C@H](C)O` [Seq Id No. 19] (Ac-[dH][dF][dI][dR][dW][dT]-NH2), the “Inhibition Zone (mm)” value in experiment [1] worked out at 14 mm. On the same count and under the same terms, to `CC[C@@H](C)[C@@H](NC(=O)[C@@H](Cc1ccccc1)NC(=O)[C@@H](Cc1c[nH]cn1)NC(C)=O)C(=O)N[C@H](CCCNC(=N)N)C(=O)N[C@H](Cc1c[nH]c2ccccc12)C(=O)N[C@H](Cc1ccc(O)cc1)C(N)=O` [Seq Id No. 20] (Ac-[dH][dF][dI][dR][dW][dY]-NH2) belongs 16 mm. With `CC[C@@H](C)[C@@H](NC(=O)[C@@H](Cc1c[nH]c2ccccc12)NC(=O)[C@@H](CCCNC(=N)N)NC(=O)[C@H](NC(=O)[C@@H](Cc1ccccc1)NC(=O)[C@@H](Cc1c[nH]cn1)NC(C)=O)[C@H](C)CC)C(N)=O` [Seq Id No. 21] (Ac-[dH][dF][dI][dR][dW][dI]-NH2), the “Inhibition Zone (mm)” value in experiment [1] was determined as 16 mm.

Take `CC[C@@H](C)[C@@H](NC(=O)[C@@H](Cc1ccccc1)NC(=O)[C@@H](Cc1c[nH]cn1)NC(C)=O)C(=O)N[C@H](CCCNC(=N)N)C(=O)N[C@H](Cc1c[nH]c2ccccc12)C(=O)N[C@H](C)C(N)=O` [Seq Id No. 22] (Ac-[dH][dF][dI][dR][dW][dA]-NH2): in experiment [1], the “Inhibition Zone (mm)” value was 15 mm. Still for that read-out and setting: to `CC[C@@H](C)[C@@H](NC(=O)[C@@H](Cc1ccccc1)NC(=O)[C@@H](Cc1c[nH]cn1)NC(C)=O)C(=O)N[C@H](CCCNC(=N)N)C(=O)N[C@H](Cc1c[nH]c2ccccc12)C(=O)N[C@H](CC(N)=O)C(N)=O` [Seq Id No. 23] (Ac-[dH][dF][dI][dR][dW][dN]-NH2) belongs 15 mm. On the same count and under the same terms, under `CC[C@@H](C)[C@@H](NC(=O)[C@@H](Cc1ccccc1)NC(=O)[C@@H](Cc1c[nH]cn1)NC(C)=O)C(=O)N[C@H](CCCNC(=N)N)C(=O)N[C@H](Cc1c[nH]c2ccccc12)C(=O)N[C@H](CCSC)C(N)=O` [Seq Id No. 24] (Ac-[dH][dF][dI][dR][dW][dM]-NH2) stands 18 mm; under `CC[C@@H](C)[C@@H](NC(=O)[C@@H](Cc1ccccc1)NC(=O)[C@@H](Cc1c[nH]cn1)NC(C)=O)C(=O)N[C@H](CCCNC(=N)N)C(=O)N[C@H](Cc1c[nH]c2ccccc12)C(=O)N[C@H](Cc1c[nH]c2ccccc12)C(N)=O` [Seq Id No. 25] (Ac-[dH][dF][dI][dR][dW][dW]-NH2), 16 mm; under `CC[C@@H](C)[C@@H](NC(=O)[C@@H](Cc1ccccc1)NC(=O)[C@@H](Cc1c[nH]cn1)NC(C)=O)C(=O)N[C@H](CCCNC(=N)N)C(=O)N[C@H](Cc1c[nH]c2ccccc12)C(=O)N[C@H](CCC(N)=O)C(N)=O` [Seq Id No. 26] (Ac-[dH][dF][dI][dR][dW][dQ]-NH2), 16 mm.

With “GRF: growth hormone releasing factor (GRF) [reference compound]”, the “SGH” value in experiment [3] (time 0 min (before dosing)) was 11.2 ng/mL; in experiment [3] (time 15 min (before dosing)) it was 11.3 ng/mL; in experiment [3] (time 30 min (time of dose)), 8.4 ng/mL; in experiment [3] (time 35 min) it was 67.1 ng/mL; in experiment [3] (time 40 min) it was 103.5 ng/mL; in experiment [3] (time 45 min) it was 53.1 ng/mL. On to H-f-i-r-w-f [Peptide 13], for which the “Yeast Assay (mm)” value in experiment [1] was found to be 15 mm. Besides, the “cAMP Assay Intrinsic activity” value in experiment [2] (test peptide 2 µM) came out at 26.2%. The like results for a-f-i-r-w-f [Peptide 2] were, in that order, “none” and 13.0%.

f-h-i-r-w-f [Peptide 24]: the “Yeast Assay (mm)” value in experiment [1] is reported as “none”. The “cAMP Assay Intrinsic activity” value in experiment [2] (test peptide 2 µM) is on record as 65.2%.

f-i-r-w-f [Peptide 7]: the “Yeast Assay (mm)” value in experiment [1] is given as “none”. The “cAMP Assay Intrinsic activity” value in experiment [2] (test peptide 2 µM) is recorded as -7.2%. The like results for f-r-i-r-w-f [Peptide 25] were, in that order, “none” and 10.8%.
